What was measured:
[1] = target: Auxenochlorella protothecoides ApPPO1 (SEQ ID NO: 1) variant F386V, fused to MBP (Auxenochlorella protothecoides, UniProt A0A087SQM0, F386V); test: PPO enzyme inhibition assay (IC50), MBP-fused PPO; type: biochemical
[2] = target: T1, Myxococcus xanthus MxPPO (SEQ ID NO: 3) variant V164A, fused to MBP (Myxococcus xanthus, UniProt P56601, V164A); test: PPO enzyme inhibition assay (IC50), MBP-fused PPO (Table 15); type: biochemical
T1 construct: For encoding the PPO protein (MxPPO); made in house; host or cells: BL21 CodonPlus(DE3) E. coli

[3] = system: E. coli BT3(ΔPPO) transformed with Auxenochlorella protothecoides ApPPO1 (SEQ ID NO: 1) variant Y422L (YL); test: Herbicide tolerance test in PPO-deficient E. coli BT3(ΔPPO), growth on plates; type: cell-based; conditions: Table 7, light, 37° C., 16 to 20 hours, vs wild type at highest herbicide concentration
Procedure: (§2) The mutated CyPPO gene obtained from the Example 2 was transformed to BT3 (ΔPPO) strain which is deficient of PPO activity and cultured in LB media with PPO-inhibiting herbicide, thereby examining whether growth of transformed BT3 was not inhibited.
(§3) BT3 competent cells were transformed with the pET303-ApPPO1 and pET303-MxPPO plasmids and those with a mutation(s) constructed in Example 2 respectively, and were cultured in LB agar media containing carbenicillin (Gold Biotechnology, Co., Ltd.).
(§4) Single colony of E. coli transformed with each CyPPO gene was cultured in 3 ml of LB broth containing carbenicillin overnight, and then was subcultured until absorbance (OD600) reached 0.5 to 1. Then, it was diluted with LB broth to OD600=0.5. Again, the diluted solution was serially diluted 4 times by a factor of one tenth.
(§5) The LB agar media (LB 25 g/l, Bacto agar 15 g/l) containing carbenicillin (100 μg/ml) and 0 to 4,000 μM of various herbicides dissolved in DMSO was prepared. Next, 10 μl of each diluted solution was dropped on the plate and cultured at 37° C. under light (Tables 7, 9 and 10, FIGS. 2 to 6, 13 to 20) or dark (Tables 8 and 11, FIGS. 7 to 12, 21 to 24) for 16 to 20 hours. Then, the extent of tolerance was evaluated.
(§6) The extent of herbicide tolerance of the ApPPO1 or MxPPO mutated genes was evaluated by comparing that of mutated genes with that of ApPPO1 or MxPPO wild type. The relative tolerance was represented with “+” as a factor of 10 times.
(§7) In Tables 7 to 11, tolerance level was presented as ‘−’ of tolerance of wild type and of variants equivalent to that of wild type, and was done as ‘+’ per each 10 fold resistance until ‘+++++’ as maximal resistance. […] A dilution series (OD600=0.5, 0.05, 0.005, 0.0005, 0.00005) was made and spotted on LB agar plates supplemented with herbicides.

[4] = target: Auxenochlorella protothecoides ApPPO1 (protoporphyrinogen IX oxidase), wild type, SEQ ID NO: 1, fused to MBP (Auxenochlorella protothecoides, UniProt A0A087SQM0); test: PPO enzyme inhibition assay (IC50), MBP-fused PPO; type: biochemical; conditions: ApPPO1 WT; 50 μM protoporphyrinogen IX, pH 8.0, room temperature, 30 min
[5] = target: Auxenochlorella protothecoides ApPPO1 (SEQ ID NO: 1) variant R140A, fused to MBP (Auxenochlorella protothecoides, UniProt A0A087SQM0, R140A); test: PPO enzyme inhibition assay (IC50), MBP-fused PPO; type: biochemical
Procedure: (§8) Thus, PPO proteins of wild type and variants were expressed as fused to MBP and were used for experiments.
(§9) The following process for purification of PPO protein was performed in a 4° C. cold room. […] The column was washed with 3 column volumes of buffer and the presence of protein in the washing solution was examined. When the protein was no longer detected, the washing procedure was terminated. Then, the MBP-PPO protein was eluted with approximately 2 column volumes of buffer containing 20 mM maltose. The protein concentration of each eluent was determined and the elution was stopped when the protein was no longer detected. Ten microliter of each fraction was investigated for protein quantification and SDS-PAGE analysis. […]
(§10) Hundred and eighty microliters of a reaction mixture containing the purified PPO protein were placed in 96 well plates and 20 μl of purified PPO proteins were added. […] The reaction proceeded at room temperature for 30 min and the fluorescence of protoporphyrin IX was measured using Microplate reader (Sense, Hidex) (excitation: 405 nm; emission: 633 nm). […] To this, 2.7 N HCl was added, and the absorbance at 408 nm was measured. A standard curve was generated using standard protoporphyrin IX, and PPO activity was measured by calibration of protoporphyrin IX using the standard curve of protoporphyrin IX.

[6] = target: T2, Myxococcus xanthus MxPPO (SEQ ID NO: 3) variant R95A, fused to MBP (Myxococcus xanthus, UniProt P56601, R95A); test: biochemical
T2 construct: For encoding the PPO protein (MxPPO); made in house; host or cells: BL21 CodonPlus(DE3) E. coli

[7] = target: T3, Myxococcus xanthus MxPPO (SEQ ID NO: 3) variant A170C, fused to MBP (Myxococcus xanthus, UniProt P56601, A170C); test: PPO enzyme inhibition assay (IC50), MBP-fused PPO (Table 15); type: biochemical
T3 construct: made in house; host or cells: BL21 CodonPlus(DE3) E. coli
Procedure: as §8
(§11) In order to express wild type and variant proteins of ApPPO1 and MxPPO, those genes were introduced into pMAL-c2x vector (refer to FIG. 25), respectively.
as §9
(§12) Hundred and eighty microliters of a reaction mixture containing the purified PPO protein were placed in 96 well plates and 20 μl of purified PPO proteins were added. […] The reaction proceeded at room temperature for 30 min and the fluorescence of protoporphyrin IX was measured using Microplate reader (Sense, Hidex) (excitation: 405 nm; emission: 633 nm). […] To this, 2.7 N HCl was added, and the absorbance at 408 nm was measured. […]

[8] = system: E. coli BT3(ΔPPO) transformed with Auxenochlorella protothecoides ApPPO1 (SEQ ID NO: 1) variant V360M (VM); test: Herbicide tolerance test in PPO-deficient E. coli BT3(ΔPPO), growth on plates; type: cell-based; conditions: Table 7, light, 37° C., 16 to 20 hours, vs wild type at highest herbicide concentration
Procedure: as §2, §3, §4, §5, §6, §7

[9] = target: T4, Myxococcus xanthus MxPPO (protoporphyrinogen IX oxidase), wild type, SEQ ID NO: 3, fused to MBP (Myxococcus xanthus, UniProt P56601); test: PPO enzyme inhibition assay (IC50), MBP-fused PPO (Table 15); type: biochemical; conditions: protoporphyrinogen IX 50 μM, room temperature, 30 min
T4 construct: For encoding the PPO protein (MxPPO); made in house; host or cells: BL21 CodonPlus(DE3) E. coli

[10] = target: Auxenochlorella protothecoides ApPPO1 (SEQ ID NO: 1) variant F209A, fused to MBP (Auxenochlorella protothecoides, UniProt A0A087SQM0, F209A); test: PPO enzyme inhibition assay (IC50), MBP-fused PPO; type: biochemical
Procedure: as §8, §9, §10

[11] = target: Auxenochlorella protothecoides ApPPO1 (SEQ ID NO: 1) variant V360M, fused to MBP (Auxenochlorella protothecoides, UniProt A0A087SQM0, V360M); test: PPO enzyme inhibition assay (IC50), MBP-fused PPO; type: biochemical
[12] = system: wild type A. thaliana (Col-0 ecotype); test: Herbicide spray test on 4-week-old plants, wild type; type: in vivo, Arabidopsis thaliana; conditions: 100 ml of 1 μM tiafenacil and 0.05% Silwet L-77 per 0.24 m^2; within 7 days
Procedure: In order to examine PPO-inhibiting herbicide tolerance of the transgenic plants, 4-week-old plants were evenly sprayed with herbicide (100 ml of 1 μM tiafenacil and 0.05% Silwet L-77 (v/v)) in 40×60 cm area (0.24 m^2).

[13] = system: E. coli BT3(ΔPPO) transformed with Auxenochlorella protothecoides ApPPO1 (SEQ ID NO: 1) variant A215L (AL); test: Herbicide tolerance test in PPO-deficient E. coli BT3(ΔPPO), growth on plates; type: cell-based; conditions: Table 7, light, 37° C., 16 to 20 hours, vs wild type at highest herbicide concentration
Procedure: as §2, §3, §4, §5, §6, §7

[14] = system: E. coli BT3(ΔPPO) transformed with Auxenochlorella protothecoides ApPPO1 (SEQ ID NO: 1) variant Y422I (YI); type: cell-based; conditions: Table 7, light, 37° C., 16 to 20 hours, vs wild type at highest herbicide concentration
Procedure: as §2, §3, §4, §5, §6, §7

[15] = system: E. coli BT3(ΔPPO) transformed with Auxenochlorella protothecoides ApPPO1 (SEQ ID NO: 1) variant Y422T (YT); test: Herbicide tolerance test in PPO-deficient E. coli BT3(ΔPPO), growth on plates; type: cell-based; conditions: Table 7, light, 37° C., 16 to 20 hours, vs wild type at highest herbicide concentration
Procedure: as §2, §3, §4, §5, §6, §7

[16] = target: T5, Myxococcus xanthus MxPPO (SEQ ID NO: 3) variant I168C, fused to MBP (Myxococcus xanthus, UniProt P56601, I168C); test: PPO enzyme inhibition assay (IC50), MBP-fused PPO (Table 15); type: biochemical
T5 construct: For encoding the PPO protein (MxPPO); made in house; host or cells: BL21 CodonPlus(DE3) E. coli

[17] = target: Auxenochlorella protothecoides ApPPO1 (SEQ ID NO: 1) variant A215C, fused to MBP (Auxenochlorella protothecoides, UniProt A0A087SQM0, A215C); test: PPO enzyme inhibition assay (IC50), MBP-fused PPO; type: biochemical
Procedure: as §8, §9, §10

[18] = target: Auxenochlorella protothecoides ApPPO1 (SEQ ID NO: 1) variant A215L, fused to MBP (Auxenochlorella protothecoides, UniProt A0A087SQM0, A215L); test: biochemical
Procedure: as §8, §9, §10

[19] = target: T6, Myxococcus xanthus MxPPO (SEQ ID NO: 3) variant F329V, fused to MBP (Myxococcus xanthus, UniProt P56601, F329V); test: PPO enzyme inhibition assay (IC50), MBP-fused PPO (Table 15); type: biochemical
T6 construct: For encoding the PPO protein (MxPPO); made in house; host or cells: BL21 CodonPlus(DE3) E. coli
Procedure: as §8, §11, §9, §12

[20] = system: E. coli BT3(ΔPPO) transformed with Auxenochlorella protothecoides ApPPO1 (SEQ ID NO: 1) variant Y422C (YC); test: Herbicide tolerance test in PPO-deficient E. coli BT3(ΔPPO), growth on plates; type: cell-based; conditions: Table 7, light, 37° C., 16 to 20 hours, vs wild type at highest herbicide concentration
Procedure: as §2, §3, §4, §5, §6, §7

[21] = target: Auxenochlorella protothecoides ApPPO1 (SEQ ID NO: 1) variant L389T, fused to MBP (Auxenochlorella protothecoides, UniProt A0A087SQM0, L389T); test: PPO enzyme inhibition assay (IC50), MBP-fused PPO; type: biochemical
[22] = system: E. coli BT3(ΔPPO) transformed with Auxenochlorella protothecoides ApPPO1 wild type, SEQ ID NO: 1; test: Herbicide tolerance test in PPO-deficient E. coli BT3(ΔPPO), growth on plates; type: cell-based; conditions: ApPPO1 WT, 37° C., 16 to 20 hours
Procedure: (§1) Then, the extent of tolerance was evaluated.

[23] = system: E. coli BT3(ΔPPO) transformed with Myxococcus xanthus MxPPO wild type, SEQ ID NO: 3; test: as above; type: cell-based; conditions: MxPPO WT, light
Procedure: as §1

Chain of Auxenochlorella protothecoides ApPPO1 (SEQ ID NO: 1) variant R140A, fused to MBP (A0A087SQM0 entry or part of it R140A): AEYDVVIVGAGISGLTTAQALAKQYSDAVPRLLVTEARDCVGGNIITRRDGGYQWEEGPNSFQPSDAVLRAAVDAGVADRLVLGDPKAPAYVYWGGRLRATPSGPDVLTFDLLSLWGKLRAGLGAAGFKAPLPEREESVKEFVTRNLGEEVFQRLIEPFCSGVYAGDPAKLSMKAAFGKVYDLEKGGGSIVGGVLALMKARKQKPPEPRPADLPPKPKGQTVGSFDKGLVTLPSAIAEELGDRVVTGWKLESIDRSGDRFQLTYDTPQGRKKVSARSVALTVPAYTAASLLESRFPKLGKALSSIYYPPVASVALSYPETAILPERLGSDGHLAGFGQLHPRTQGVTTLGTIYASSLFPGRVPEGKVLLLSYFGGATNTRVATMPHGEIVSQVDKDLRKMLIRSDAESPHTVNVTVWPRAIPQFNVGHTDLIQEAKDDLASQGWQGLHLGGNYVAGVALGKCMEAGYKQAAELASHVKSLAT
Chain of Auxenochlorella protothecoides ApPPO1 (SEQ ID NO: 1) variant F386V, fused to MBP (A0A087SQM0 entry or part of it F386V): as the sequence (A0A087SQM0 entry or part of it R140A) above, with A90R, F336V counted along it
Chain of Auxenochlorella protothecoides ApPPO1 (SEQ ID NO: 1) variant F209A, fused to MBP (A0A087SQM0 entry or part of it F209A): as the sequence (A0A087SQM0 entry or part of it R140A) above, with A90R, F159A counted along it
Chain of Auxenochlorella protothecoides ApPPO1 (SEQ ID NO: 1) variant L389T, fused to MBP (A0A087SQM0 entry or part of it L389T): as the sequence (A0A087SQM0 entry or part of it R140A) above, with A90R, L339T counted along it
T1 sequence (P56601 whole entry V164A, the tested form may be a part): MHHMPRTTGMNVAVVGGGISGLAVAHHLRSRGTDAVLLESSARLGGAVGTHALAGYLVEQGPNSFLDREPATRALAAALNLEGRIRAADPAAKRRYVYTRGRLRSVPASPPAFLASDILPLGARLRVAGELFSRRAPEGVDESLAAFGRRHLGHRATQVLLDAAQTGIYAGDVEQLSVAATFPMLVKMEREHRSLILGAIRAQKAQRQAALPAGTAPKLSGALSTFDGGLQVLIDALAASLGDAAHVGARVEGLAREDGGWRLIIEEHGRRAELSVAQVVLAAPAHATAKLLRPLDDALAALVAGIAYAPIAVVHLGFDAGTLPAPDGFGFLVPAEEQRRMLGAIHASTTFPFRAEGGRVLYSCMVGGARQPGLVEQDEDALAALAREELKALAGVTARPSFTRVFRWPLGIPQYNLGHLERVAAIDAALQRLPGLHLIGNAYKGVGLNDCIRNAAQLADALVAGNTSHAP
T4 sequence (P56601 whole entry, the tested form may be a part): as the sequence (P56601 whole entry V164A, the tested form may be a part) above, with A164V counted along it
T3 sequence (P56601 whole entry A170C, the tested form may be a part): as the sequence (P56601 whole entry V164A, the tested form may be a part) above, with A164V, A170C counted along it
Chain of Auxenochlorella protothecoides ApPPO1 (protoporphyrinogen IX oxidase), wild type, SEQ ID NO: 1, fused to MBP (A0A087SQM0 51-532): as the sequence (A0A087SQM0 entry or part of it R140A) above, with A90R counted along it
T2 sequence (P56601 whole entry R95A, the tested form may be a part): as the sequence (P56601 whole entry V164A, the tested form may be a part) above, with R95A, A164V counted along it
Chain of Auxenochlorella protothecoides ApPPO1 (SEQ ID NO: 1) variant A215L, fused to MBP (A0A087SQM0 entry or part of it A215L): as the sequence (A0A087SQM0 entry or part of it R140A) above, with A90R, A165L counted along it
T5 sequence (P56601 whole entry I168C, the tested form may be a part): as the sequence (P56601 whole entry V164A, the tested form may be a part) above, with A164V, I168C counted along it
T6 sequence (P56601 whole entry F329V, the tested form may be a part): as the sequence (P56601 whole entry V164A, the tested form may be a part) above, with A164V, F329V counted along it
Chain of Auxenochlorella protothecoides ApPPO1 (SEQ ID NO: 1) variant A215C, fused to MBP (A0A087SQM0 entry or part of it A215C): as the sequence (A0A087SQM0 entry or part of it R140A) above, with A90R, A165C counted along it
Chain of Auxenochlorella protothecoides ApPPO1 (SEQ ID NO: 1) variant V360M, fused to MBP (A0A087SQM0 entry or part of it V360M): as the sequence (A0A087SQM0 entry or part of it R140A) above, with A90R, V310M counted along it

COC(=O)CCNC(=O)C(C)Sc1cc(-n2c(=O)cc(C(F)(F)F)n(C)c2=O)c(F)cc1Cl (stereo not shown) [tiafenacil]
IC50 [1]: 368 nM | IC50 [2]: 367 nM | relative herbicide tolerance level [3]: ++ (10-99 fold higher tolerance) | IC50 [4]: 21 nM | IC50 [5]: 86 nM | IC50 [6]: 2370 nM | IC50 [7]: 1680 nM | relative herbicide tolerance level [8]: ++ (10-99 fold higher tolerance) | IC50 [9]: 0.242 µM | IC50 [10]: 69 nM | IC50 [11]: 75 nM | plant damage after spraying [12]: completely died within 7 days after treatment | relative herbicide tolerance level [13]: ++ (10-99 fold higher tolerance) | relative herbicide tolerance level [14]: ++ (10-99 fold higher tolerance) | relative herbicide tolerance level [15]: ++ (10-99 fold higher tolerance) | IC50 [16]: 550 nM | IC50 [17]: 76 nM | IC50 [18]: 3460 nM | IC50 [19]: 239 nM | relative herbicide tolerance level [20]: ++ (10-99 fold higher tolerance) | IC50 [21]: 716 nM | relative herbicide tolerance level ([22]; Table 7, light, vs wild type at highest herbicide concentration): − | relative herbicide tolerance level ([22]; Table 8, dark, tiafenacil to 200 μM, flumioxazin to 100 μM, sulfentrazone to 400 μM): − | relative herbicide tolerance level ([23]; Table 9, tiafenacil to 2000 μM, saflufenacil to 200 μM, flumioxazin to 100 μM): − | relative herbicide tolerance level ([23]; Table 10, tiafenacil 2000 μM, flumioxazin to 400 μM, sulfentrazone to 1000 μM): −
